Test system: RCC4
Test: XTT cell viability assay in RCC4 cells (VHL-deficient renal carcinoma)
Assay type: cell-based
Details: Homo sapiens, 96 h, four days drug exposure
Experimental: (§1) Cell Culture. RCC4 parental and RCC4 with VHL-reintroduced (RCC4/VHL), SN12C and SN12C-CSCG-VHL shRNA were maintained in DMEM supplemented with 10% FCS.
(§2) Cell Viability Assays. For 2,3-bis[2-methoxy-4-nitro-5-sulfophenyl]-2H-tetrazolium-5-carboxanilide (XTT) assays, five thousand cells were plated in 96-well plates. The next day, vehicle (DMSO) or drug was added by serial dilution. Four days later, media were aspirated, XTT solution (0.3 mg/ml of XTT (Sigma), […] N-methyl dibenxopyrazine methyl sulfate (Simga) in phenol red-free media) was added, and the plates were incubated at 37° C. for 1-2 hours. Metabolism of XTT was quantified by measuring the absorbance at 450 nm IC50s were calculated using linear interpolation. For clonogenic survival assays, three hundred cells were plated per 60 mm tissue culture dish. The cells were allowed to attach overnight and then treated with vehicle or drug for 14 days. Colonies were fixed and stained with crystal violet (0.1% crystal violet in 95% ethanol). All conditions were measured in triplicate and each experiment was done in duplicate or triplicate. To determine necrosis, cells were treated with drug for a given time point. Media and cells were collected, centrifugated, and resuspended in 0.4% trypan blue (Invitrogen). Live and dead cells were counted on a hematocytometer.
(§3) The designation A reflects an IC50 of <1 nM; B reflects an IC50 ranging from 1 to 20 nM; and C is an IC50 of >20 nM. The designation “a” reflects a ratio of RCC4/RCC-VHL+ranging from 1 to ≦10; “b” reflects from 10 to ≦100; “c” reflects a ratio of >100. Compounds I-29 have an IC50 value of ≦10 μM when tested in the above assay.

Structure (SMILES)	IC50
O=C(Nc1cccnc1)c1ccc(CNS(=O)(=O)c2ccc(Cl)nc2)cc1 [II-2, 4-({[(6-Chloro-3-pyridinyl)sulfonyl]amino}methyl)-N-(3-pyridinyl)benzamide]	> 20 nM
Cc1ncc(S(=O)(=O)NCc2ccc(C(=O)Nc3cccnc3)cc2)n1C [II-6, 4-({[(1,2-Dimethyl-1H-imidazol-5-yl)sulfonyl]amino}methyl)-N-(3-pyridinyl)benzamide]	> 20 nM
O=C(Nc1cccnc1)c1ccc(CNS(=O)(=O)c2nnc[nH]2)cc1 [II-7, N-(3-pyridinyl)-4-{[(4H-1,2,4-triazol-3-ylsulfonyl)amino]methyl}benzamide]	> 20 nM

Test system: RCC4 with VHL-reintroduced (RCC4/VHL)
Test: XTT cell viability assay in RCC4/VHL cells, selectivity ratio versus RCC4
Assay type: cell-based
Details: Ratio = IC50RCC4/VHL/IC50RCC4
Experimental: as §1, §2, §3

Structure (SMILES)	Ratio
O=C(Nc1cccnc1)c1ccc(CNS(=O)(=O)c2cccnc2)cc1 [II-1, N-(3-Pyridinyl)-4-{[(3-pyridylsulfonyl)amino]methyl}benzamide]	a (a ratio of RCC4/RCC-VHL+ranging from 1 to ≦10)
O=C(Nc1cccnc1)c1ccc(CNS(=O)(=O)c2ccc(Oc3ccccc3)nc2)cc1 [II-3, 4-({[(6-Phenoxy-3-pyridinyl)sulfonyl]amino}methyl)-N-(3-pyridinyl)benzamide]	a (a ratio of RCC4/RCC-VHL+ranging from 1 to ≦10)
O=C(Nc1cccnc1)c1ccc(CNS(=O)(=O)c2cccs2)cc1 [II-4, N-(3-Pyridinyl)-4-{[(2-thienylsulfonyl)amino]methyl}benzamide]	a (a ratio of RCC4/RCC-VHL+ranging from 1 to ≦10)
O=C(Nc1cccnc1)c1ccc(CNS(=O)(=O)c2ccsc2)cc1 [II-5, N-(3-Pyridinyl)-4-{[(3-thienylsulfonyl)amino]methyl}benzamide]	a (a ratio of RCC4/RCC-VHL+ranging from 1 to ≦10)

Test system: not given
Test: not given
Details: not given

Structure (SMILES)	melting point
Cc1ccc(S(=O)(=O)Cc2nc(-c3ccc(C(=O)Nc4cccnc4)cc3)oc2C)cc1 [Example 1, 4-(5-Methyl-4-{[(4-methylphenyl)sulfonyl]methyl}-1,3-oxazol-2-yl)-N-(3-pyridinyl)benzamide]	248 to 250 °C
Cc1ccc(S(=O)(=O)Cc2nc(-c3ccc(C(=O)Nc4ccncc4)cc3)oc2C)cc1 [Example 2, 4-(5-Methyl-4-{[(4-methylphenyl)sulfonyl]methyl}-1,3-oxazol-2-yl)-N-(4-pyridinyl)benzamide]	229 to 231 °C
Cc1ccc(S(=O)(=O)Cc2nc(-c3ccc(C(=O)N(C)c4cccnc4)cc3)oc2C)cc1 [Example 3, N-Methyl-4-(5-methyl-4-{[(4-methylphenyl)sulfonyl]methyl}-1,3-oxazol-2-yl)-N-(3-pyridinyl)benzamide]	195 to 197 °C
Cc1ccc(S(=O)(=O)Cc2nc(-c3ccc(C(=O)NCc4ccccn4)cc3)oc2C)cc1 [Example 4, 4-(5-Methyl-4-{[(4-methylphenyl)sulfonyl]methyl}-1,3-oxazol-2-yl)-N-(2-pyridinylmethyl)benzamide]	154 to 155 °C
Cc1ccc(S(=O)(=O)Cc2nc(-c3ccc(C(=O)NCc4ccncc4)cc3)oc2C)cc1 [Example 6, 4-(5-Methyl-4-{[(4-methylphenyl)sulfonyl]methyl}-1,3-oxazol-2-yl)-N-(4-pyridinylmethyl)benzamide]	169 to 172 °C
Cc1ccc(S(=O)(=O)Cc2nc(-c3ccc(C(=O)N(C)Cc4cccnc4)cc3)oc2C)cc1 [Example 7, N-Methyl-4-(5-methyl-4-{[(4-methylphenyl)sulfonyl]methyl}-1,3-oxazol-2-yl)-N-(3-pyridinylmethyl)benzamide]	77 to 80 °C
Cc1ccc(S(=O)(=O)Cc2nc(-c3ccc(C(=O)NCCc4cccnc4)cc3)oc2C)cc1 [Example 8, 4-(5-Methyl-4-{[(4-methylphenyl)sulfonyl]methyl}-1,3-oxazol-2-yl)-N-[2-(3-pyridinyl)ethyl]benzamide]	207 to 208 °C
Cc1ccc(S(=O)(=O)Cc2nc(-c3ccc(C(=O)NCc4cnccn4)cc3)oc2C)cc1 [Example 9, 4-(5-Methyl-4-{[(4-methylphenyl)sulfonyl]methyl}-1,3-oxazol-2-yl)-N-(2-pyrazinylmethyl)benzamide]	204 to 206 °C
Cc1ccc(S(=O)(=O)Cc2nc(-c3ccc(C(=O)NCc4nccn4C)cc3)oc2C)cc1 [Example 10, N-[(1-Methyl-1H-imidazol-2-yl)methyl]-4-(5-methyl-4-{[(4-methylphenyl)sulfonyl]methyl}-1,3-oxazol-2-yl)benzamide]	190 to 192 °C
Cc1ccc(S(=O)(=O)Cc2nc(-c3ccc(C(=O)NCc4cncn4C)cc3)oc2C)cc1 [Example 11, N-[(1-Methyl-1H-imidazol-5-yl)methyl]-4-(5-methyl-4-{[(4-methylphenyl)sulfonyl]methyl}-1,3-oxazol-2-yl)benzamide]	240 to 242 °C
Cc1oc(-c2ccc(C(=O)NCc3cccnc3)cc2)nc1CS(=O)(=O)c1ccccc1 [Example 12, 4-{5-Methyl-4-[(phenylsulfonyl)methyl]-1,3-oxazol-2-yl}-N-(3-pyridinylmethyl)benzamide]	196 to 198 °C
Cc1oc(-c2ccc(C(=O)NCc3cccnc3)cc2)nc1CS(=O)(=O)c1ccc(Cl)cc1 [Example 13, 4-(4-{[(4-Chlorophenyl)sulfonyl]methyl}-5-methyl-1,3-oxazol-2-yl)-N-(3-pyridinylmethyl)benzamide]	220 to 222 °C
Cc1oc(-c2ccc(C(=O)NCc3cccnc3)cc2)nc1CS(=O)(=O)c1ccc(C(C)(C)C)cc1 [Example 14, 4-(4-{[(4-tert-Butylphenyl)sulfonyl]methyl}-5-methyl-1,3-oxazol-2-yl)-N-(3-pyridinylmethyl)benzamide]	177 to 180 °C
Cc1cc(C)cc(S(=O)(=O)Cc2nc(-c3ccc(C(=O)NCc4cccnc4)cc3)oc2C)c1 [Example 15, 4-(4-{[(3,5-Dimethylphenyl)sulfonyl]methyl}-5-methyl-1,3-oxazol-2-yl)-N-(3-pyridinylmethyl)benzamide]	188 to 190 °C
Cc1oc(-c2ccc(C(=O)NCc3cccnc3)cc2)nc1CS(=O)(=O)c1ccc(Br)cc1 [Example 16, 4-(4-{[(4-Bromophenyl)sulfonyl]methyl}-5-methyl-1,3-oxazol-2-yl)-N-(3-pyridinylmethyl)benzamide]	224 to 227 °C
Cc1cccc(S(=O)(=O)Cc2nc(-c3ccc(C(=O)NCc4cccnc4)cc3)oc2C)c1 [Example 17, 4-(5-Methyl-4-{[(3-methylphenyl)sulfonyl]methyl}-1,3-oxazol-2-yl)-N-(3-pyridinylmethyl)benzamide]	179 to 181 °C
COc1ccc(S(=O)(=O)Cc2nc(-c3ccc(C(=O)NCc4cccnc4)cc3)oc2C)cc1 [Example 18, 4-(4-{[(4-Methoxyphenyl)sulfonyl]methyl}-5-methyl-1,3-oxazol-2-yl)-N-(3-pyridinylmethyl)benzamide]	189 to 191 °C
COc1cccc(S(=O)(=O)Cc2nc(-c3ccc(C(=O)NCc4cccnc4)cc3)oc2C)c1 [Example 19, 4-(5-Methyl-4-{[(3-methoxyphenyl)sulfonyl]methyl}-1,3-oxazol-2-yl)-N-(3-pyridinylmethyl)benzamide]	143 to 145 °C
COc1ccc(S(=O)(=O)Cc2nc(-c3ccc(C(=O)NCc4cccnc4)cc3)oc2C)cc1OC [Example 20, 4-(4-{[(3,4-Dimethoxyphenyl)sulfonyl]methyl}-5-methyl-1,3-oxazol-2-yl)-N-(3-pyridinylmethyl)benzamide]	104 to 108 °C
Cc1oc(-c2ccc(C(=O)NCc3cccnc3)cc2)nc1CS(=O)(=O)c1ccc(F)cc1 [Example 22, 4-(4-{[(4-Fluorophenyl)sulfonyl]methyl}-5-methyl-1,3-oxazol-2-yl)-N-(3-pyridinylmethyl)benzamide]	218 to 220 °C
Cc1oc(-c2ccc(C(=O)NCc3cccnc3)cc2)nc1CS(=O)(=O)c1ccc(N2CCN(C)CC2)cc1 [Example 23, 4-[5-Methyl-4-({[4-(4-methyl-1-piperazinyl)phenyl]sulfonyl}methyl)-1,3-oxazol-2-yl]-N-(3-pyridinylmethyl)benzamide]	210 to 215 °C
Cc1oc(-c2ccc(C(=O)NCc3cccnc3)cc2)nc1CS(=O)(=O)c1ccc(N2CCOCC2)cc1 [Example 24, 4-[5-Methyl-4-({[4-(4-morpholinyl)phenyl]sulfonyl}methyl)-1,3-oxazol-2-yl]-N-(3-pyridinylmethyl)benzamide]	208 to 210 °C
Cc1ccc(S(=O)(=O)Cc2csc(-c3ccc(C(=O)NCc4cccnc4)cc3)n2)cc1 [Example 25, 4-(4-{[(4-Methylphenyl)sulfonyl]methyl}-1,3-thiazol-2-yl)-N-(3-pyridinylmethyl)benzamide]	178 to 181 °C
Cc1oc(-c2ccc(C(=O)NCc3ccccc3)cc2)nc1CS(=O)(=O)c1ccc(Br)cc1 [Example 27, N-Benzyl-4-(4-{[(4-bromophenyl)sulfonyl]methyl}-5-methyl-1,3-oxazol-2-yl)benzamide]	234 to 237 °C
O=C(Nc1cccnc1)c1ccc(CNS(=O)(=O)c2ccc(Cl)nc2)cc1 [II-2, 4-({[(6-Chloro-3-pyridinyl)sulfonyl]amino}methyl)-N-(3-pyridinyl)benzamide]	226 to 228 °C
Cc1ncc(S(=O)(=O)NCc2ccc(C(=O)Nc3cccnc3)cc2)n1C [II-6, 4-({[(1,2-Dimethyl-1H-imidazol-5-yl)sulfonyl]amino}methyl)-N-(3-pyridinyl)benzamide]	238 to 240 °C
O=C(Nc1cccnc1)c1ccc(CNS(=O)(=O)c2nnc[nH]2)cc1 [II-7, N-(3-pyridinyl)-4-{[(4H-1,2,4-triazol-3-ylsulfonyl)amino]methyl}benzamide]	266 to 269 °C
